Laboratory results as given in patent US12186311B2, “Antiproliferative compounds and second active agents for combined use” (Celgene Corporation, priority 2019, dated 2025).

Columns and labels:
Assay type in all cases: cell-based
[1] = test system: AMO1 (parental) cell line; test: Cell proliferation, combination with Compound 2, combination index (Calcusyn), AMO1; details: AMO1, 3 days
Procedure: (§1) AMO1 (parental) and AMO1-PR (pomalidomide resistant) cell lines were treated with various doses of Compound 2 in combination with increasing doses of an MEK inhibitor trametinib for 3 days. Cell proliferation was analyzed using thymidine incorporation assays. Combination index values were calculated by Calcusyn and values below 10^0 represented the synergy between the combination treatments. The results are shown in FIG. 4A (AMO1), FIG. 4B (AMO1 combination index), FIG. 4C (AMO1-PR), and FIG. 4D (AMO1-PR combination index), respectively.
(§2) AMO1 and AMO1-PR (pomalidomide resistant) cell lines were treated with increasing doses of Compound 2 in combination with a PLK1 inhibitor (BI2536). Changes in cell proliferation were studied in response to monotherapy and combinations at Day 3 post treatment. Combination Index was calculated using Calcusyn based method. Combination index values were calculated by Calcusyn and values below 10^0 represented the synergy between the combination treatments. PLK1 is one of the key target gene of MDMS8 (molecularly defined myeloma segment 8), a high risk cluster identified from myeloma genome project. The results are shown in FIG. 6A (AMO1), FIG. 6B (AMO1 combination index), FIG. 6C (AMO1-PR), and FIG. 6D (AMO1-PR combination index), respectively. Inhibition of MDMS8 target gene PLK1 with Compound 2 is synergistic in AMO1 and AMO1-PR cells.
(§3) AMO1 and AMO1-PR (pomalidomide resistant) cell lines were treated with increasing doses of Compound 2 in combination with an NEK2 inhibitor (JH295). Changes in cell proliferation were studied in response to monotherapy and combinations at Day 3 post treatment. Combination index values were calculated by Calcusyn and values below 10^0 represented the synergy between the combination treatments. NEK2 is one of the key target gene of MDMS8 (molecularly defined myeloma segment 8), a high risk cluster identified from myeloma genome project. The results are shown in FIG. 7A (AMO1 combination index) and FIG. 7B (AMO1-PR combination index), respectively. Inhibition of MDMS8 target gene NEK2 with Compound 2 is synergistic in AMO1 and AMO1-PR cells.
(§4) AMO1, AMO1-PR (pomalidomide resistant), K12PE and K12PE-PR (pomalidomide resistant) cell lines were treated with increasing doses of Compound 2 in combination with an AURKB inhibitor (AZD 1152). […] Combination index values were calculated by Calcusyn and values below […] represented the synergy between the combination treatments. […]
(§5) AMO1, AMO1-PR (pomalidomide resistant) cell lines were treated with increasing doses of Compound 2 in combination with a BIRC5 inhibitor (YM155). […] Combination index values were calculated by Calcusyn and values below 10^0 represented the synergy between the combination treatments. […]

[2] = test system: AMO1-PR (pomalidomide resistant) cell line; test: Cell proliferation, combination with Compound 2, combination index (Calcusyn), AMO1-PR; details: 3 days
Procedure: as §1, §2, §3, §4, §5

[3] = test system: MM cell lines OPM.2-P10, H929-1051, KMS12BM PR, L363, JJN3; test: 7 day combination assay (Annexin V/7-AAD flow cytometry, fractional product method), MM cell line panel; details: panel of 5 MM cell lines, 7 day assay, 3 days priming with second agent
Procedure: Five MM cell lines with acquired or inherent resistance to lenalidomide or pomalidomide were included in the studies (OPM.2-P10, H929-1051, KM[…] PR, L363, and JJN3). […] The assay was performed in a 96-well plate. All MM cell lines were cultured in an incubator at 37° C. with 5% CO2 using the indicated cell culture media containing 1×Penicillin-Streptomycin. The MM cells were primed for 3 days with these second agents at the single agent IC50 value. […] Compound 2 was added to the cells at a dose range of 30 μM-0.00018 μM, depending on the cell line, for a 8 point dose response curve. The cells were incubated at 37° C. for an additional 4 days. At the end of the 7 day treatment, the MM cells were stained with Annexin V and 7-AAD and analyzed on a flow cytometer. Live MM cells were identified as Annexin V and 7-AAD double negative cells. In these experiments, synergy calculations were performed using the fractional product method (Webb, 1963).

[4] = test system: panel of MM cell lines (H929-1051, KMS11, KMS-12PE, L363, OPM-P10, RPMI8226); test: Compound 2 combination with small molecule inhibitors, 3 day Cell Titer-Glo, Highest Single Agent synergy; details: six MM cell lines, 3 days, Highest Single Agent method
Procedure: The combination experiments were run twice, each time with replicate data on separate plates. Compounds were pre-spotted into the appropriate wells of 384-well plates using an acoustic dispenser. All MM cell lines were cultured in an incubator at 37° C. with 5% CO2 using the indicated cell culture media containing 1× Penicillin-Streptomycin. Cells were added to the compound containing 384-well plates using a Multidrop Combi Reagent Dispenser and allowed to incubate for 3 days at 37° C. with 5% CO2. After 3 days, cells were assessed for their level of ATP content via Cell Titer-Glo measured on a luminescence detector (PerkinElmer Envision).
The Highest Single Agent (HAS) method was used to detect synergy in the dose response curve data. Combinations were analyzed from a response surface perspective.

SMILES	synergy in combination with Compound 2 [3]	synergy in combination with Compound 2 [4]	other results
CC[C@@H]1C(=O)N(C)c2cnc(Nc3ccc(C(=O)NC4CCN(C)CC4)cc3OC)nc2N1C1CCCC1 [BI2536, (R)-4-((8-cyclopentyl-7-ethyl-5-methyl-6-oxo-5,6,7,8-tetrahydropteridin-2-yl)amino)-3-methoxy-N-(1-methylpiperidin-4-yl)benzamide]			synergy with Compound 2 (combination index) [1]: synergistic; synergy with Compound 2 (combination index) [2]: synergistic
COc1cc(C)[nH]c(=O)c1CNC(=O)c1c(C)n([C@H](C)C2CCN(CC(F)(F)F)CC2)c2ccccc12 [CPI-1205, (R)—N-((4-methoxy-6-methyl-2-oxo-1,2-dihydropyridin-3-yl)methyl)-2-methyl-1-(1-(1-(2,2,2-trifluoroethyl)piperidin-4-yl)ethyl)-1H-indole-3-carboxamide]	synergistic in all 5 cell lines tested		
C#CC(=O)Nc1ccc2c(c1)/C(=C/c1[nH]c(CC)nc1C)C(=O)N2 [JH295, (Z)—N-(3-((2-ethyl-4-methyl-1H-imidazol-5-yl)methylene)-2-oxoindolin-5-yl)propiolamide]			synergy with Compound 2 (combination index) [1]: synergistic; synergy with Compound 2 (combination index) [2]: synergistic
CC(C)N(CCCNC(=O)Nc1ccc(C(C)(C)C)cc1)C[C@H]1O[C@@H](n2cc(Br)c3c(N)ncnc32)[C@H](O)[C@@H]1O [SGC0946, 5 bromo-7-[5-deoxy-5-[[3-[[[[4-(1,1-dimethylethyl)phenyl]amino]carbonyl]amino]propyl](1-methylethyl)amino]-β-D-ribofuranosyl]-7H-pyrrolo[2,3-d]pyrimidin-4-amine]		synergy in one, two, or three out of the six cell lines tested	
COCCn1c2c([n+](Cc3cnccn3)c1C)C(=O)c1ccccc1C2=O.[Br-] [YM155, 1-(2-methoxyethyl)-2-methyl-4,9-dioxo-3-(pyrazin-2-ylmethyl)-4,9-dihydro-1H-naphtho[2,3-d]imidazol-3-ium bromide]			synergy with Compound 2 (combination index) [1]: synergistic; synergy with Compound 2 (combination index) [2]: synergistic
Nc1ncn([C@@H]2O[C@H](CO)[C@@H](O)[C@H]2O)c(=O)n1 [azacitidine, 4-amino-1-β-D-ribofuranosyl-1,3,5-triazin-2(1H)-one]	synergy in 4 of the cell lines tested		
CO[C@H]1C[C@@H]2CC[C@@H](C)[C@@](O)(O2)C(=O)C(=O)N2CCCC[C@H]2C(=O)O[C@H]([C@H](C)C[C@@H]2CC[C@@H](OCCO)[C@H](OC)C2)CC(=O)[C@H](C)/C=C(\C)[C@@H](O)[C@@H](OC)C(=O)[C@H](C)C[C@H](C)/C=C/C=C/C=C/1C [everolimus, 40-O-(2-hydroxyethyl)-rapamycin]		synergy in combination with Compound 2 in five out of the six cell lines tested	
Cc1cnc(Nc2ccc(OCCN3CCCC3)cc2)nc1Nc1cccc(S(=O)(=O)NC(C)(C)C)c1 [fedratinib, N-tert-butyl-3-[(5-methyl-2-{4-[2-(pyrrolidin-1-yl)ethoxy]anilino}pyrimidin-4-yl)amino]benzenesulfonamide]		synergy in one, two, or three out of the six cell lines tested	
C=CC(=O)N1CCC[C@@H](n2nc(-c3ccc(Oc4ccccc4)cc3)c3c(N)ncnc32)C1 [ibrutinib, 1-[(3R)-3-[4-amino-3-(4-phenoxyphenyl)-1Hpyrazolo[3,4-d]pyrimidin-1-yl]-1-piperidinyl]-2-propen-1-one]		synergy in one, two, or three out of the six cell lines tested	
C[C@]1(O)C[C@@H](c2nc(-c3ccc4ccc(-c5ccccc5)nc4c3)c3c(N)nccn32)C1 [linsitinib, cis-3-[8-amino-1-(2-phenyl-7-quinolinyl)imidazo[1,5-a]pyrazin-3-yl]-1-methylcyclobutanol]		synergy in combination with Compound 2 in four out of the six cell lines tested	
CC(C)N(C[C@H]1O[C@@H](n2cnc3c(N)ncnc32)[C@H](O)[C@@H]1O)C1CC(CCc2nc3cc(C(C)(C)C)ccc3[nH]2)C1 (stereo partly drawn) [pinometostat, (2R,3R,4S,5R)-2-(6-amino-9H-purin-9-yl)-5-((((1r,3S)-3-(2-(5-(tert-butyl)-1H-benzo[d]imidazol-2-yl)ethyl)cyclobutyl)(isopropyl)amino)methyl)tetrahydrofuran-3,4-diol]	Synergy was also evident		
O=C(/C=C\n1cnc(-c2cc(C(F)(F)F)cc(C(F)(F)F)c2)n1)NNc1cnccn1 [selinexor, (2Z)-3-{3-[3,5-bis(trifluoromethyl)phenyl]-1H-1,2,4-triazol-1-yl}-N′-(pyrazin-2-yl)prop-2-enehydrazide]		synergy in one, two, or three out of the six cell lines tested	
CCN(c1cc(-c2ccc(CN3CCOCC3)cc2)cc(C(=O)NCc2c(C)cc(C)[nH]c2=O)c1C)C1CCOCC1 [tazemetostat, N-[(1,2-dihydro-4,6-dimethyl-2-oxo-3-pyridinyl)methyl]-5-[ethyl(tetrahydro-2H-pyran-4-yl)amino]-4-methyl-4′-(4-morpholinylmethyl)-[1,1′-biphenyl]-3-carboxamide]	synergistic in all 5 cell lines tested	synergy in one, two, or three out of the six cell lines tested	
